Laboratory results from patent USRE49816E1, “Dipeptides as inhibitors of human immunoproteasomes” (CORNELL UNIVERSITY, priority 2014, dated 2024).
pIC50, pKi: −log10 of the molar value. Like-named read-outs stand apart in the source and are kept apart here.

How the values were obtained:
Karpas 1106p cells [1] = assay: Cytotoxicity (LD50) against Karpas lymphoma cells; assay type: cell-based, human; details: Table 3
Source text: Table 3 lists the inhibition kinetic parameters, selectivity index, and calculated log Ps of selected dipeptides.

hu c-20S β5c-subunit = hu c-20S β5c-subunit (Homo sapiens, UniProt P20618+P28074); assay: N,C-capped dipeptides IC50, succ-LLVY-AMC fluorescence assay; assay type: biochemical
Procedure: (§1) All inhibitory assays for N,C capped dipeptides were performed in a black solid-bottom 96-well plate. In general, compound plates were prepared starting from 10 mM in 3× series dilution to 15 μM. 1 μl of DMSO stock was transferred to a black 96-well plate and 100 μL of reaction mixture were added 15 μM N-acetyl-Alanine-Asparagine-Tryptophan-7-amino-4-methylcourmarin (Ac-ANW-AMC) or 25 μM succinyl-Leucine-Leucine-Valine-Tyrosine-7-amino-4-methyl-courmarin (succ-LLVY-AMC), 0.4 nM hu i-20S β5i-subunit or 0.2 nM hu c-20S β5c-subunit, 0.02% SDS, 1% BSA, 0.5 mM EDTA in 20 mM HEPES buffer at pH7.5. The plates were then spun at 1000 rpm for 1 minute, and the fluorescence units of each well were recorded at λex=360 nm, λem=460 nm for 2 hours. The slopes of the initial linear range of the time course were used to calculate the velocity, and relative activities were normalized to the velocities of the DMSO control.

hu i-20S β5i-subunit = hu i-20S β5i-subunit (Homo sapiens, UniProt P20618+P28062); assay: N,C-capped dipeptides IC50, Ac-ANW-AMC fluorescence assay; assay type: biochemical; details: for SI (selectivity index): Hu c-20S over Hu i-20S
Procedure: as §1

[2] = test system: proteasome inside the Karpas 1106p cells; assay: Cell-based Proteasome-Glo assay after compound removal; parameters: species or system human; details: 4 hours, read-out: Proteasome-glo β5-IC50
Karpas 1106p cells [3] = assay: Cytotoxicity (LD50) against Karpas lymphoma cells; assay type: cell-based, human; details: Table 4
hu i-20S β5i = hu i-20S β5i (Homo sapiens, UniProt P20618+P28062); assay: Kinetic parameters of oxathiazolones vs hu i-20S β5i; assay type: biochemical; details: for kinact: printed value is kinact × 10^3
Karpas cells = assay: Accumulation of poly-ubiquitinylated proteins in Karpas cells (anti-ub blot); assay type: cell-based, human; details: 24 hours treatment
Procedure: FIGS. 5A-C show experimental results relating to SAR studies and target engagement inside the cells. FIG. 5A is a graph showing experimental results relating to inhibition of i-20S β5i and c-20S β5c by selected dipeptides. […] FIG. 5C is an image of an SDS-page gel showing accumulation of poly-ubiquitinylated (ub) proteins. Karpas cells were treated with dipeptides, or with bortezomib as a control, at indicated concentrations for 24 hours, and the poly-ub proteins in the lysates were blotted with anti-ub antibody and visualized with a second antibody directed against the first antibody and tagged with a dye that absorbs infrared light (Odyssey® CLx imaging system, LICOR).

hu c-20S β5c = hu c-20S β5c (Homo sapiens, UniProt P20618+P28074); assay: Kinetic parameters of oxathiazolones vs hu c-20S β5c; assay type: biochemical; details: Hu20S β5c; from slopes of kobs vs [I]

| SMILES | LD50 (Karpas 1106p cells [1]) [µM] | pIC50 (hu c-20S β5c-subunit) | pIC50 (hu i-20S β5i-subunit) | pIC50 [2] | LD50 Karpas (Karpas 1106p cells [3]) [µM] | further results |
| --- | --- | --- | --- | --- | --- | --- |
| COC[C@H](NC(=O)[C@H](CC(=O)NOC(C)(C)C)NS(=O)(=O)c1ccc(C)cc1)C(=O)NCc1cccc2ccccc12 [DPLG-2150, (S)—N^4-(tert-butoxy)-N^1—((S)-3-methoxy-1-((naphthalen-1-ylmethyl)amino)-1-oxopropan-2-yl)-2-((4-methylphenyl)sulfonamido)succinamide] | 0.8 | 6.21 | 8.36 | 8.05 | 0.8 | SI (selectivity index) (hu i-20S β5i-subunit): 139 |
| C[C@H](NC(=O)[C@H](CC(=O)NC1COC1)NC(=O)CCc1ccccc1)C(=O)NCc1cccc2ccccc12 [DPLG-2130, (S)—N1-((S)-1-((naphthalen-1-ylmethyl)amino)-1-oxopropan-2-yl)-N4-(oxetan-3-yl)-2-(3-phenylpropanamido)succinamide] | 67.8 | – | – | 5.95 | 67.8 | – |
| O=c1oc(-c2ccc(-c3ccccc3)cc2)ns1 [HT2004] | – | – | – | – | – | pKi (hu i-20S β5i): 5.85 |
| CC(C)C[C@H](NC(=O)[C@H](Cc1ccccc1)NC(=O)c1cnccn1)B(O)O [Bortezomib, reference compound] | – | – | – | 9.22 | 0.0017 | accumulation of poly-ubiquitinylated proteins (Karpas cells): accumulation |
| C[C@H](NC(=O)[C@H](CC(=O)NOC(C)(C)C)NC(=O)CCc1ccccc1)C(=O)NCc1cccc2ccccc12 [DPLG-2058] | 34.4 | – | – | 8.05 | 34.4 | – |
| C[C@H](NC(=O)[C@H](CC(=O)NOC(C)(C)C)NC(=O)CCc1ccccc1)C(=O)NCc1cccc2[nH]ccc12 [DPLG-2083, (S)—N^1—((S)-1-(((1H-indol-4-yl)methyl)amino)-1-oxopropan-2-yl)-N^4-(tert-butoxy)-2-(3-phenylpropanam-ido)succinamide] | 0.254 | 6.62 | 7.60 | 6.80 | 0.254 | SI (selectivity index) (hu i-20S β5i-subunit): 10 |
| O=c1oc(-c2ccccn2)ns1 [HT1043] | – | – | – | – | – | kinact/KI (hu i-20S β5i; Hu20S β5i): 129 M⁻¹ s⁻¹; kinact (hu i-20S β5i; Hu20S β5i): 0.00025 s⁻¹; pKi (hu i-20S β5i; Hu20S β5i, read-out: KI): 5.70; kinact/KI (hu c-20S β5c): 0.2 M⁻¹ s⁻¹ |
| COC[C@H](NC(=O)[C@H](CC(=O)NOC(C)(C)C)NC(=O)CCc1ccccc1)C(=O)NCc1cccc(OC)c1 [DPLG-2160, (S)—N^4-(tert-butoxy)-N^1—-((S)-3-methoxy-1-((3-methoxybenzyl)amino)-1-oxopropan-2-yl)-2-(3-phenylpropanamido)succinamide] | 0.05 | 7.01 | 8.03 | 7.72 | 0.05 | SI (selectivity index) (hu i-20S β5i-subunit): 10 |
| COC[C@H](NC(=O)[C@H](CC(=O)NOC(C)(C)C)NC(=O)CCc1ccccc1)C(=O)NCc1cccc2ccccc12 [DPLG-2086, (S)—N^4-(tert-butoxy)-N^1—((S)-3-methoxy-1-((naphthalen-1-ylmethyl)amino)-1-oxopropan-2-yl)-2-(3-phenylpropanamido)succinamide] | 0.46 | – | – | 8.30 | 0.46 | accumulation of poly-ubiquitinylated proteins (Karpas cells): accumulation of poly-Ub proteins |
| COC[C@H](NC(=O)OC(C)(C)C)C(=O)N[C@@H](C)C(=O)NCc1cccc2ccccc12 [DPLG-2032, tert-butyl ((S)-3-methoxy-1-(((S)-1-((naphthalen-1-ylmethyl)amino)-1-oxopropan-2-yl)amino)-1-oxopropan-2-yl)carbamate] | 37 | < 4.00 | 4.11 | < 4.00 | >100 | – |
| Cc1ccc(S(=O)(=O)N[C@@H](CC(=O)NOC(C)(C)C)C(=O)N[C@@H](C)C(=O)NCc2cccc3ccccc23)cc1 [DPLG-2091, (S)—N4-(tert-butoxy)-2-((4-methylphenyl)sulfonamido)-N1-((S)-1-((naphthalen-1-ylmethyl)amino)-1-oxopropan-2-yl)succinamide] | 5.3 | 5.64 | 7.59 | 7.19 | 5.3 | SI (selectivity index) (hu i-20S β5i-subunit): 88 |
| C[C@H](NC(=O)[C@H](CC(=O)NOC(C)(C)C)NC(=O)CCCc1ccccc1)C(=O)NCc1cccc2ccccc12 [DPLG-2127, (S)—N4-(tert-butoxy)-N1-((S)-1-((naphthalen-1-ylmethyl)amino)-1-oxopropan-2-yl)-2-(4-phenylbutanamido)succinamide] | >100 | – | – | 6.80 | >100 | – |
| C[C@H](NC(=O)[C@H](CC(=O)NOC(C)(C)C)NC(=O)C(F)(F)F)C(=O)NCc1cccc2ccccc12 [DPLG-2106, (S)—N4-(tert-butoxy)-N1-((S)-1-((naphthalen-1-ylmethyl)amino)-1-oxopropan-2-yl)-2-(2,2,2-trifluoroacetamido)succinamide] | 7.8 | – | – | 5.84 | 7.8 | – |
| Cc1sc(-c2nsc(=O)o2)cc1[N+](=O)[O-] [HT1171] | – | – | – | – | – | kinact/KI (hu i-20S β5i; Hu20S β5i): 1010 M⁻¹ s⁻¹; kinact (hu i-20S β5i; Hu20S β5i): 0.00077 s⁻¹; pKi (hu i-20S β5i; Hu20S β5i, read-out: KI): 6.12; kinact/KI (hu c-20S β5c): 10.1 M⁻¹ s⁻¹ |
